How the values were obtained:
KRasG12C mutant = KRasG12C mutant (Homo sapiens (Human), UniProt P01116, G12C); assay: covalent competition assay; format: binding; settings: comparison of the two atropisomers; a(R) vs a(S) configuration
[1] = target: KRasG12C (M1-K169, biotinylated on the N-terminus) (Homo sapiens (Human), UniProt P01116, G12C); assay: Covalent competition assay: scintillation proximity assay (SPA) quantifying covalent modification of KRASG12C; format: binding; settings: competition with radiolabeled covalent probe (Compound B/Compound A), 2 hours incubation, 10 nM KRasG12C
Method in brief: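 Test compounds compete with a radiolabeled covalent probe for modification of N-terminally biotinylated KRasG12C(M1-K169):GDP, final 10 nM protein, 25 nM radio-ligand, 475 nM unlabelled ligand, 2 h with agitation in 20 mM Tris-HCl pH 7.5, 150 mM NaCl, 0.1 mM MgCl2, 0.01% Tween-20.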

KRasG12C = KRasG12C (Homo sapiens (Human), UniProt P01116, G12C); assay: MS-based assay assessing % modification of KRasG12C over compound concentrations and time points; format: biochemical; settings: non-labeled ligand, internally determined, read-out: (kinact/KI)probe, second order rate constant for modification of KRasG12C

SMILES	relative activity of the atropisomers of a pair in the covalent competition assay (KRasG12C mutant)	IC50 [1] [nM]	kinact/KI (KRasG12C) [M⁻¹ s⁻¹]
C=CC(=O)N1CC2(CC(n3nc(N4CCN(C(C)=O)C[C@]4(C)CC)c(-c4c(Cl)c(C)cc5[nH]ncc45)c3C)C2)C1 (single isomer, unassigned) [Example 121a]	less active atropisomer	> 5000	–
C=CC(=O)N1CC2(CC(n3nc(N4CCN(C(C)=O)C[C@]4(C)CC)c(-c4c(Cl)c(C)cc5[nH]ncc45)c3C)C2)C1 (single isomer, unassigned) [Example 121b]	most active atropisomer	8	–
C=CC(=O)N1CC2(CC(n3nc(N4[C@@H](C)CN(C(C)=O)C[C@@H]4C)c(-c4c(Cl)c(C)cc5[nH]ncc45)c3C)C2)C1 (single isomer, unassigned) [Example 56a]	–	> 50000	–
C=CC(=O)N1CC2(CC(n3nc(N4CCC5(CN(C6COC6)C5)CC4(C)C)c(-c4c(Cl)c(Cl)cc5[nH]ncc45)c3C)C2)C1 (single isomer, unassigned) [Example 92a, 1-(6-(4-(5,6-dichloro-1H-indazol-4-yl)-3-(6,6-dimethyl-2-(oxetan-3-yl)-2,7-diazaspiro[3.5]nonan-7-yl)-5-methyl-1H-pyrazol-1-yl)-2-azaspiro[3.3]heptan-2-yl)prop-2-en-1-one]	–	2100	–
C=CC(=O)N1CC2(CC(n3nc(N4CCn5nccc5C4C)c(-c4c(Cl)c(C)cc5[nH]ncc45)c3C)C2)C1 (single isomer, unassigned) [Example 41a, 1-(6-(4-(5-chloro-6-methyl-1H-indazol-4-yl)-5-methyl-3-(4-methyl-6,7-dihydropyrazolo[1,5-a]pyrazin-5(4H)-yl)-1H-pyrazol-1-yl)-2-azaspiro[3.3]heptan-2-yl)prop-2-en-1-one]	–	41900	–
C=CC(=O)N1CC2(CC(n3nc(N4CCN(CCOC)CC45CCC5)c(-c4c(Cl)c(Cl)cc5[nH]ncc45)c3C)C2)C1 (single isomer, unassigned) [Example 76b, 1-(6-(4-(5,6-dichloro-1H-indazol-4-yl)-3-(8-(2-methoxyethyl)-5,8-diazaspiro[3.5]nonan-5-yl)-5-methyl-1H-pyrazol-1-yl)-2-azaspiro[3.3]heptan-2-yl)prop-2-en-1-one]	–	10	–
C=CC(=O)N1CC2(CC(n3nc(N4CCN(C(=O)C5CC5)CC4(C)C)c(-c4c(Cl)c(C)cc5[nH]ncc45)c3C)C2)C1 (single isomer, unassigned) [Example 127b, 1-(6-(4-(5-chloro-6-methyl-1H-indazol-4-yl)-3-(4-(cyclopropanecarbonyl)-2,2-dimethylpiperazin-1-yl)-5-methyl-1H-pyrazol-1-yl)-2-azaspiro[3.3]heptan-2-yl)prop-2-en-1-one]	–	20	–
C=CC(=O)N1CC2(CC(n3nc(N4CC[C@@H](CN5CC6(CCOC6)C5)CC4(C)C)c(-c4c(Cl)c(Cl)cc5[nH]ncc45)c3C)C2)C1 (single isomer, unassigned) [Example 316b]	–	9	–

Now from value to compound:

relative activity of the atropisomers of a pair in the covalent competition assay (KRasG12C mutant)	IC50 [1] [nM]	kinact/KI (KRasG12C) [M⁻¹ s⁻¹]	SMILES
–	–	~5000	C=CC(=O)Nc1ccc(-n2c(C)c(-c3c(C)ccc4[nH]ncc34)c3cccnc32)c(F)c1 [Compound A, N-(3-fluoro-4-(2-methyl-3-(5-methyl-1H-indazol-4-yl)-1H-pyrrolo[2,3-b]pyridin-1-yl)phenyl)acrylamide]
–	> 50000	–	C=CC(=O)N1CC2(CC(n3nc(N4CCOCC4(C)C)c(-c4c(Cl)c(C)cc5[nH]ncc45)c3C)C2)C1 (single isomer, unassigned) [Example 22a, 1-(6-(4-(5-chloro-6-methyl-1H-indazol-4-yl)-3-(3,3-dimethylmorpholino)-5-methyl-1H-pyrazol-1-yl)-2-azaspiro[3.3]heptan-2-yl)prop-2-en-1-one]
–	> 5000	–	C=CC(=O)N1CC2(CC(n3nc(N4CC[C@@H](CN5CCCC6CN(C)C(=O)C65)CC4(C)C)c(-c4c(Cl)c(Cl)cc5[nH]ncc45)c3C)C2)C1 (single isomer, unassigned) [Example 261a, (4aR*,7aR*)-1-(((R)-1-(1-(2-acryloyl-2-azaspiro[3.3]heptan-6-yl)-4-(5,6-dichloro-1H-indazol-4-yl)-5-methyl-1H-pyrazol-3-yl)-2,2-dimethylpiperidin-4-yl)methyl)-6-methyloctahydro-7H-pyrrolo[3,4-b]pyridin-7-one]
–	> 50000	–	C=CC(=O)N1CC2(CC(n3nc(N4CCn5nccc5C4(C)C)c(-c4c(Cl)c(C)cc5[nH]ncc45)c3C)C2)C1 (single isomer, unassigned) [Example 101a, 1-(6-(4-(5-chloro-6-methyl-1H-indazol-4-yl)-3-(4,4-dimethyl-6,7-dihydropyrazolo[1,5-a]pyrazin-5(4H)-yl)-5-methyl-1H-pyrazol-1-yl)-2-azaspiro[3.3]heptan-2-yl)prop-2-en-1-one]
–	12	–	[2H]C([2H])([2H])c1c(-c2c(Cl)c(Cl)cc3[nH]ncc23)c(N2CC[C@@H](CN3CCOCC3)CC2(C)C)nn1C1CC2(C1)CN(C(=O)C=C)C2 (single isomer, unassigned) [Example 224b]
–	1700	–	C=CC(=O)N1CC2(CC(n3nc(N4CCN(CCN5CCOCC5=O)C[C@]4(C)CC)c(-c4c(Cl)c(C)cc5[nH]ncc45)c3C)C2)C1 (single isomer, unassigned) [Example 177b]
–	> 5000	–	C=CC(=O)N1CC2(CC(n3nc(N4CCCC4(C)C)c(-c4c(Cl)c(C)cc5[nH]ncc45)c3C)C2)C1 (single isomer, unassigned) [Example 88a, 1-(6-(4-(5-chloro-6-methyl-1H-indazol-4-yl)-3-(2,2-dimethylpyrrolidin-1-yl)-5-methyl-1H-pyrazol-1-yl)-2-azaspiro[3.3]heptan-2-yl)prop-2-en-1-one]
–	> 5000	–	C=CC(=O)N1CC2(CC(n3nc(N4CC[C@@H](CN5CCC56COC6)CC4(C)C)c(-c4c(Cl)c(Cl)cc5[nH]ncc45)c3C)C2)C1 (single isomer, unassigned) [Example 307a]
–	9	–	C=CC(=O)N1CC2(CC(n3nc(N4CC[C@@H](CN5CC6OCCN(C)C6C5)CC4(C)C)c(-c4c(Cl)c(Cl)cc5[nH]ncc45)c3C)C2)C1 (single isomer, unassigned) [Example 260b, 1-(6-(4-(5,6-dichloro-1H-indazol-4-yl)-3-((R)-2,2-dimethyl-4-(((4aR*,7aS*)-4-methylhexahydropyrrolo[3,4-b][1,4]oxazin-6(2H)-yl)methyl)piperidin-1-yl)-5-methyl-1H-pyrazol-1-yl)-2-azaspiro[3.3]heptan-2-yl)prop-2-en-1-one]

Reference: US20240317721A1, “PYRAZOLYL DERIVATIVES AS INHIBITORS OF THE KRAS MUTANT PROTEIN” (NOVARTIS AG, priority 2021, published 2024)
